Assay: Bioavailability of salmon calcitonin after nasal application (plasma concentration by radio-immuno-assay)
Set-up: species or system rhesus monkeys
Conditions: rhesus monkey, in vivo
Description: The drug compound concentration was measured in the plasma by radio-immuno-assay. The salmon calcitonin determinations were carried out up to 6 hours after application.

Substance: salmon calcitonin
- bioavailability as % of the value measured with the best known resorption promoter: 67%
- bioavailability as % of the values found after application without resorption promoter: > 400%

— patent US5122520A, “Acid addition salts of amidated taurine or glycine, their preparation and use” (Sandoz Ltd., priority 1988, dated 1992)
